Reference: US9994905B2, “Methods for the diagnosis and treatment of pulmonary fibrosis in subjects with hermansky pudlak syndrome” (BROWN UNIVERSITY, priority 2014, dated 2018)
Read-outs that look alike come from different tables or passages of the source.

Experiments:
[1] = target: CRTH2 (Mus musculus, UniProt Q9Z2J6); details: intratracheal bleomycin, 30 mg/kg IP every other day, Day 5 to Day 14; for bleomycin-induced collagen accumulation: Sircol on Day 14 (FIG. 6D)
Experimental: Sex-matched, 8-wk-old wild-type (WT), pale ear, CHI3L1^−/−, and CHI3L1Tgmice (≥5 mice/group) were exposed to a single bleomycin injection (1.25 U/kg; Teva Parenteral Medicines, Irvine, Calif.) via intratracheal administration. Mice were sacrificed and evaluated at Day 7 and Day 14 to examine apoptosis and fibrosis, respectively.
Animals were anesthetized, median sternotomy was performed, and right heart perfusion completed with calcium and magnesium-free PBS. The heart and lungs were then removed. The right lung was frozen in liquid nitrogen and stored at −80° C. until used. Collagen content was determined by quantifying total soluble collagen using the Sircol Collagen Assay kit (Biocolor, Accurate Chemical & Scientific Co., Westbury, N.Y.) according to the manufacturer's instructions.
Sex-matched, 8-wk-old wild-type (WT), pale ear, and CHI3L1 Tg mice (≥5 mice/group) were exposed to a single bleomycin injection (1.25 U/kg; Teva Parenteral Medicines, Irvine, Calif.) via intratracheal administration. Mice were treated with 30 mg/kg CAY10471 (Cayman Chemical) (IP, every other day) or DMSO control from Day 5 to Day 14.

[2] = test system: Primary Type II alveolar epithelial cells; assay: Bleomycin-induced apoptosis (TUNEL) in primary Type II alveolar epithelial cells; assay type: cell-based, mouse; details: 500 ng/ml pre-treatment, 100 μg/ml bleomycin (FIG. 5A)
Experimental: End labeling of exposed 3′-OH ends of DNA fragments in paraffin-embedded tissue was undertaken with the TUNEL in situ cell death detection kit AP (Roche Diagnostics). SPC co-staining was performed using a goat anti-mouse SPC primary antibody (Santa Cruz) and Alexa Fluor 594 secondary antibody. After staining, 8-10 random pictures were obtained from each lung, and a minimum of 300 cells were visually evaluated in each section. The labeled cells were expressed as a percentage of total nuclei.
WT and pale ear mouse lungs were digested with collagenase and DNase I. The resulting suspension was filtered through Falcon cell strainers, and the cells were negatively selected with anti-CD16/CD32 antibodies. Cells were maintained in BEGM+5% charcoal-stripped FBS and 10 ng/ml KGF. A549 cells were obtained from the American Type Culture Collection (ATCC, Manassas, Va.) and maintained in DMEM+2 mM glutamine+10% FBS. Primary Type II Cells were pre-treated with 500 ng/ml recombinant CHI3L1, transfected with IL-13Rα2 construct, and stimulated with 100 μg/ml bleomycin. In A549 cells, HPS1, HPS4, Rab32, and Rab38 siRNA were co-transfected with IL-13Rα2 construct, and stimulated with 100 μg/ml bleomycin. Cells were cytospun onto slides. Immunofluorescence and/or TUNEL staining were performed as previously described.

CRTH2, sequence (Q9Z2J6 whole entry): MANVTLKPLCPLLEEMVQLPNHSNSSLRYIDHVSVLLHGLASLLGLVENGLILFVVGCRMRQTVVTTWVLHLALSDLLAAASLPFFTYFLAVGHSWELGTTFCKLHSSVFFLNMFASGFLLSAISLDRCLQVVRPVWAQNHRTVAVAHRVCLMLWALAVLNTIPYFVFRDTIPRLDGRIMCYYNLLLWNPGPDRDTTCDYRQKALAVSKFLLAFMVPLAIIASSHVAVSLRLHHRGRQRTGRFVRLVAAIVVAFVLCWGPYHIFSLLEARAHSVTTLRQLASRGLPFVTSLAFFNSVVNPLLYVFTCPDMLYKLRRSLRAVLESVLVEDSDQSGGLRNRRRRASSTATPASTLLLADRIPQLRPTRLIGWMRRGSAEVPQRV

Molecule | exaggerated fibrosis caused by CHI3L1 transgene activation during fibroproliferative repair ([1]; CHI3L1 Tg mice, Sircol on Day 14 (FIG. 6E)) | bleomycin-induced collagen accumulation ([1]; HPS1 null (pale ear) mice) | bleomycin-induced collagen accumulation ([1]; WT mice) | bleomycin-induced apoptosis (TUNEL-positive cells) ([2]; cells from WT mice) | bleomycin-induced apoptosis (TUNEL-positive cells) ([2]; cells from pale ear mice)
CN(C1CCc2c(c3ccccc3n2CC(=O)O)C1)S(=O)(=O)c1ccc(F)cc1 (centres unmarked) [CAY10471] | abrogated | decreased | decreased |  | 
Recombinant CHI3L1: recombinant chitinase 3-like-1 protein |  |  |  | powerful inhibitor | did not decrease
